[ ]: non-standard residue; d: D form. Aib = CC(C)(N)C(=O)O
Legend:
[1] = tested on: primary human T-cells; assay: Cytokine secretion on protein level in activated primary human T-cells (13-plex FACS / Luminex, supernatant); format: cell-based; conditions: 10^−9M
Procedure, shortened: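 Primary T-cells from peripheral blood of healthy volunteers, or HaCaT cells, were activated with PMA/Ionomycin or IFN-γ for 48 h and treated with tripeptides. Supernatants were collected 48 h and 72 h after stimulation and cytokines (IL-1, IL-2, IL-6, IL-12p70, IL-17, IFN-γ, TNF-α) were measured by 13-plex FACS.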

[2] = tested on: human keratinocyte cell line (HaCaT); assay: Cytokine secretion on protein level in activated human keratinocyte cell line HaCaT (13-plex FACS / Luminex, supernatant); format: cell-based; conditions: for IL-1 cytokine concentration / IL-2 cytokine concentration / IL-4 cytokine concentration / IL-5 cytokine concentration / IL-6 cytokine concentration / IL-9 cytokine concentration / IL-10 cytokine concentration / IL-13 cytokine concentration / IL-17 cytokine concentration / TNF-α cytokine concentration / IL-12p70 cytokine concentration / IL-22 cytokine concentration / IFN-γ cytokine concentration: 10^−9M; for IL-12p70 cytokine concentration / IL-22 cytokine concentration: excluded from the final assessment
Procedure, shortened: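 Stimulus: PMA/Ionomycin or IFN-γ, 48 h; cells: HaCaT or human peripheral-blood T-cells; tripeptide treatment; readout: supernatant cytokines via 13-plex FACS or Luminex, 48–72 h post-stimulation.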

[3] = tested on: primary murine T-cells; assay: Cytokine secretion on protein level in activated primary murine T-cells (13-plex FACS / Luminex, supernatant); format: cell-based, C57BL/6 mice; conditions: 10^−9M
Procedure, shortened: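 T-cells from secondary lymphatic organs of naïve C57BL/6 mice, stimulated with PMA/Ionomycin or IFN-γ; supernatant cytokines measured by 13-plex FACS 48 h and 72 h after stimulation. In another run, PMA/Ionomycin-stimulated cells received compounds at 10^−7, 10^−9 and 10^−11 M, with IFN-γ, IL-17 and IL-10 measured by Luminex.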

[4] = primary human T-cells stimulated with IFN-γ
[5] = primary human T-cells stimulated with PBS
[6] = primary human T-cells stimulated with PMA/Ionomycin
[7] = HaCaT stimulated with PMA/Ionomycin
[8] = primary murine T-cells stimulated with IFN-γ
[9] = primary murine T-cells stimulated with PBS
[10] = primary murine T-cells stimulated with PMA/Ionomycin
[11] = primary murine T-cells stimulated with PMA/Ionomycin, 1:10 dilution of the supernatants

H-Lys-[dP]-[Aib]-OH [Example 1] was tested, and the IL-1 cytokine concentration [1, 4] was 296.42 pg/mL, the IL-2 cytokine concentration [1, 4] was 515.89 pg/mL and the IL-4 cytokine concentration [1, 4] was 180.24 pg/mL. The IL-5 cytokine concentration [1, 4] was 112.65 pg/mL, the IL-6 cytokine concentration [1, 4] was 131.33 pg/mL and the IL-9 cytokine concentration [1, 4] was 111.14 pg/mL. For the same substance, the IL-10 cytokine concentration [1, 4] was 164.32 pg/mL, the IL-12p70 cytokine concentration [1, 4] was 945.16 pg/mL and the IL-13 cytokine concentration [1, 4] was 82.57 pg/mL. It also gave an IL-17 cytokine concentration [1, 4] of 234.65 pg/mL, an IL-22 cytokine concentration [1, 4] of 21389.5 pg/mL and a TNF-α cytokine concentration [1, 4] of 230.57 pg/mL. For the same substance, the IFN-γ cytokine concentration [1, 5] was 634.2 pg/mL, the IL-1 cytokine concentration [1, 5] was 398.01 pg/mL and the IL-2 cytokine concentration [1, 5] was 545.22 pg/mL. The IL-4 cytokine concentration [1, 5] was 198.06 pg/mL, the IL-5 cytokine concentration [1, 5] was 275.55 pg/mL and the IL-6 cytokine concentration [1, 5] was 85.95 pg/mL. It also gave an IL-9 cytokine concentration [1, 5] of 131.69 pg/mL, an IL-10 cytokine concentration [1, 5] of 107.07 pg/mL and an IL-12p70 cytokine concentration [1, 5] of 223.67 pg/mL. It also gave an IL-13 cytokine concentration [1, 5] of 77.6 pg/mL, an IL-17 cytokine concentration [1, 5] of 295.13 pg/mL and an IL-22 cytokine concentration [1, 5] of 2227.62 pg/mL. For the same substance, the TNF-α cytokine concentration [1, 5] was 203.95 pg/mL, the IFN-γ cytokine concentration [1, 6] was 2516.08 pg/mL and the IL-1 cytokine concentration [1, 6] was 11244.1 pg/mL. The IL-2 cytokine concentration [1, 6] was 12000 pg/mL, the IL-4 cytokine concentration [1, 6] was 209.61 pg/mL and the IL-5 cytokine concentration [1, 6] was 204.84 pg/mL. It also gave an IL-6 cytokine concentration [1, 6] of 1868.8 pg/mL, an IL-9 cytokine concentration [1, 6] of 159.86 pg/mL and an IL-10 cytokine concentration [1, 6] of 3032.66 pg/mL. The IL-12p70 cytokine concentration [1, 6] was 925.71 pg/mL, the IL-13 cytokine concentration [1, 6] was 398.98 pg/mL and the IL-17 cytokine concentration [1, 6] was 2443.34 pg/mL. The IL-22 cytokine concentration [1, 6] was 24324.9 pg/mL, the TNF-α cytokine concentration [1, 6] was 3600 pg/mL and the IL-1 cytokine concentration ([2]; HaCaT stimulated with IFN-γ) was 251.36 pg/mL. It also gave an IL-2 cytokine concentration ([2]; HaCaT stimulated with IFN-γ) of 95.81 pg/mL, an IL-4 cytokine concentration ([2]; HaCaT stimulated with IFN-γ) of 88.93 pg/mL and an IL-5 cytokine concentration ([2]; HaCaT stimulated with IFN-γ) of 156.74 pg/mL. For the same substance, the IL-6 cytokine concentration ([2]; HaCaT stimulated with IFN-γ) was 704.01 pg/mL, the IL-9 cytokine concentration ([2]; HaCaT stimulated with IFN-γ) was 96.1 pg/mL and the IL-10 cytokine concentration ([2]; HaCaT stimulated with IFN-γ) was 107.72 pg/mL. It also gave an IL-13 cytokine concentration ([2]; HaCaT stimulated with IFN-γ) of 57.99 pg/mL, an IL-17 cytokine concentration ([2]; HaCaT stimulated with IFN-γ) of 612.41 pg/mL and a TNF-α cytokine concentration ([2]; HaCaT stimulated with IFN-γ) of 101.29 pg/mL. The IL-12p70 cytokine concentration ([2]; HaCaT stimulated with IFN-γ) was 1872.11 pg/mL, the IL-22 cytokine concentration ([2]; HaCaT stimulated with IFN-γ) was 18014.5 pg/mL and the IFN-γ cytokine concentration ([2]; HaCaT stimulated with PBS) was 373.53 pg/mL. For the same substance, the IL-1 cytokine concentration ([2]; HaCaT stimulated with PBS) was 224.9 pg/mL, the IL-2 cytokine concentration ([2]; HaCaT stimulated with PBS) was 87.98 pg/mL and the IL-4 cytokine concentration ([2]; HaCaT stimulated with PBS) was 85.92 pg/mL. The IL-5 cytokine concentration ([2]; HaCaT stimulated with PBS) was 181.61 pg/mL, the IL-6 cytokine concentration ([2]; HaCaT stimulated with PBS) was 77.53 pg/mL and the IL-9 cytokine concentration ([2]; HaCaT stimulated with PBS) was 112.82 pg/mL. The IL-10 cytokine concentration ([2]; HaCaT stimulated with PBS) was 166.47 pg/mL, the IL-13 cytokine concentration ([2]; HaCaT stimulated with PBS) was 64.17 pg/mL and the IL-17 cytokine concentration ([2]; HaCaT stimulated with PBS) was 562.61 pg/mL. The TNF-α cytokine concentration ([2]; HaCaT stimulated with PBS) was 87.84 pg/mL, the IL-12p70 cytokine concentration ([2]; HaCaT stimulated with PBS) was 1881.61 pg/mL and the IL-22 cytokine concentration ([2]; HaCaT stimulated with PBS) was 18087.5 pg/mL. For the same substance, the IFN-γ cytokine concentration [2, 7] was 531 pg/mL, the IL-1 cytokine concentration [2, 7] was 118.79 pg/mL and the IL-2 cytokine concentration [2, 7] was 184.58 pg/mL. The IL-4 cytokine concentration [2, 7] was 78.12 pg/mL, the IL-5 cytokine concentration [2, 7] was 141.02 pg/mL and the IL-6 cytokine concentration [2, 7] was 131.98 pg/mL. For the same substance, the IL-9 cytokine concentration [2, 7] was 108.97 pg/mL, the IL-10 cytokine concentration [2, 7] was 48.13 pg/mL and the IL-13 cytokine concentration [2, 7] was 49.03 pg/mL. The IL-17 cytokine concentration [2, 7] was 449.68 pg/mL, the TNF-α cytokine concentration [2, 7] was 77.12 pg/mL and the IL-12p70 cytokine concentration [2, 7] was 0 pg/mL. For the same substance, the IL-22 cytokine concentration [2, 7] was 8956.12 pg/mL, the “secretion / expression of pro-inflammatory cytokines (supernatant)” value ([2]; activated human keratinocytes) was “decreased secretion” and the IL-1 cytokine concentration [3, 8] was 0 pg/mL. For the same substance, the IL-2 cytokine concentration [3, 8] was 0 pg/mL, the IL-4 cytokine concentration [3, 8] was 0 pg/mL and the IL-5 cytokine concentration [3, 8] was 0 pg/mL. It also gave an IL-6 cytokine concentration [3, 8] of 6.51 pg/mL, an IL-10 cytokine concentration [3, 8] of 0 pg/mL and an IL-13 cytokine concentration [3, 8] of 0 pg/mL. The IL-17 cytokine concentration [3, 8] was 10.81 pg/mL, the IL-21 cytokine concentration [3, 8] was 0 pg/mL and the IL-22 cytokine concentration [3, 8] was 0 pg/mL. For the same substance, the IL-27 cytokine concentration [3, 8] was 179.72 pg/mL, the TNF-α cytokine concentration [3, 8] was 0 pg/mL and the IFN-γ cytokine concentration [3, 9] was 0 pg/mL. For the same substance, the IL-1 cytokine concentration [3, 9] was 53.09 pg/mL, the IL-2 cytokine concentration [3, 9] was 0 pg/mL and the IL-4 cytokine concentration [3, 9] was 0 pg/mL. It also gave an IL-5 cytokine concentration [3, 9] of 0 pg/mL, an IL-6 cytokine concentration [3, 9] of 0 pg/mL and an IL-10 cytokine concentration [3, 9] of 110.76 pg/mL. It also gave an IL-13 cytokine concentration [3, 9] of 0 pg/mL, an IL-17 cytokine concentration [3, 9] of 0 pg/mL and an IL-21 cytokine concentration [3, 9] of 0 pg/mL. For the same substance, the IL-22 cytokine concentration [3, 9] was 0 pg/mL, the IL-27 cytokine concentration [3, 9] was 379.78 pg/mL and the TNF-α cytokine concentration [3, 9] was 0 pg/mL. It also gave an IL-1 cytokine concentration [3, 10] of 60.61 pg/mL, an IL-4 cytokine concentration [3, 10] of 0 pg/mL and an IL-5 cytokine concentration [3, 10] of 292.17 pg/mL. For the same substance, the IL-6 cytokine concentration [3, 10] was 239.47 pg/mL, the IL-10 cytokine concentration [3, 10] was 145.26 pg/mL and the IL-13 cytokine concentration [3, 10] was 3898.42 pg/mL. The IL-17 cytokine concentration [3, 10] was 459.99 pg/mL, the IL-21 cytokine concentration [3, 10] was 0 pg/mL and the IL-22 cytokine concentration [3, 10] was 526.42 pg/mL. For the same substance, the IL-27 cytokine concentration [3, 10] was 426.79 pg/mL, the TNF-α cytokine concentration [3, 10] was 535.51 pg/mL and the “IFN-γ* cytokine concentration” value [3, 11] was 0 pg/mL. The “IL-2* cytokine concentration” value [3, 11] was 1354.76 pg/mL.

— patent publication US10954269B2, “Anti-inflammatory tripeptides” (Dr. August Wolff Gmbh & Co. KG Arzneimittel, priority 2013, dated 2021)
